Measurements published in patent publication US20260028354A1, “TETRAHYDRONAPHTHALENE DERIVATIVES AS ESTROGEN RECEPTOR DEGRADERS” (REGENT OF THE UNIVERSITY OF MICHIGAN, priority 2022, published 2026).
Like-named read-outs stand apart in the source and are kept apart here.

What was measured:
ER = ER (Homo sapiens (Human), UniProt P03372); experiment: In-cell western blot analysis of ER for "B" compounds; type: cell-based; settings: 16 hours, read-out: ICW DC50
How it was run: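 ER levels given as a percentage of untreated/DMSO-treated wells (100%). Detection used primary antibodies for 2 h at room temperature followed by 680 and 800 nm fluorescent secondaries at 1:1000 for 1 h, read by LI-COR imaging.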

[1] = Cell growth assay (WST-8) for "B" compounds; type: cell-based; settings: T47D, read-out: Cell growth Inhibition in T47D cell line IC50
How it was run: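 Four-day compound exposure of cells plated at 1500/well the day before. Read-out is WST-8 (10%, 2.5 h, 37 °C) absorbance at 450 nm, normalized to vehicle control over three independent repeats.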

ER, sequence (P03372 whole entry): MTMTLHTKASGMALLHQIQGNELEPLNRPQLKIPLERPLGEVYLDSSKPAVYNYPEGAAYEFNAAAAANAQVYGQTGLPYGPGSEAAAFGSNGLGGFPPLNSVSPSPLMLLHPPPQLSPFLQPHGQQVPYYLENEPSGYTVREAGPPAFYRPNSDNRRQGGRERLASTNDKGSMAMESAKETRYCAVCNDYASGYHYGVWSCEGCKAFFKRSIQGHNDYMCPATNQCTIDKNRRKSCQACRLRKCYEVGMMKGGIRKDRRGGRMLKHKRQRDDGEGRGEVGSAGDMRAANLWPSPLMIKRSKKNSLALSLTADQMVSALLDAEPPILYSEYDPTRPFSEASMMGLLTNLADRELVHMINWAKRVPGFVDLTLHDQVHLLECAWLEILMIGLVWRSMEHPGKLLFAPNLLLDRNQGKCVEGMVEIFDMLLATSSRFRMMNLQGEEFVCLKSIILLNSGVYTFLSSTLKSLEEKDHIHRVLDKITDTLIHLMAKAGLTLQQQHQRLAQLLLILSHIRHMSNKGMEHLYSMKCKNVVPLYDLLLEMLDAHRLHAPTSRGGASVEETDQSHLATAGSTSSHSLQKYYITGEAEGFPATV

O=C1CC[C@H](NC(=O)c2ccc3c(n2)OC[C@H]2CN(CC4COC5(CN(c6ccc([C@@H]7c8ccc(O)cc8CC[C@@H]7c7ccccc7)cc6)C5)OC4)CCN32)C(=O)N1 [Compound B347, (R)-N-((S)-2,6-dioxopiperidin-3-yl)-3-((2-(4-((1R,2S)-6-hydroxy-2-phenyl-1,2,3,4-tetrahydronaphthalen-1-yl)phenyl)-5,9-dioxa-2-azaspiro[3.5]nonan-7-yl)methyl)-1,2,3,4,4a,5-hexahydropyrazino[1,2-d]pyrido[2,3-b][1,4]oxazine-8-carboxamide]
DC50 (ER): 10 to 100 nM | IC50 ([1]; T47D cell line): < 1 nM

O=C1CCC(N2Cc3c(ccc4c3OCC43CCN(CC4CCN(c5ccc([C@@H]6c7ccc(O)cc7CC[C@@H]6c6ccccc6)cc5)CC4)CC3)C2=O)C(=O)N1 (stereo partly drawn) [Compound B258, 3-(1′-((1-(4-((1R,2S)-6-hydroxy-2-phenyl-1,2,3,4-tetrahydronaphthalen-1-yl)phenyl)piperidin-4-yl)methyl)-6-oxo-6,8-dihydro-2H,7H-spiro[furo[2,3-e]isoindole-3,4′-piperidin]-7-yl)piperidine-2,6-dione]
DC50 (ER): 10 to 100 nM | IC50 [1]: < 1 nM

O=C1CC[C@H](N2Cc3cc4c(cc3C2=O)OC[C@@H]2CN(CC3COC5(CCN(c6ccc([C@@H]7c8ccc(O)cc8CC[C@@H]7c7ccccc7)cc6)CC5)C3)CCN42)C(=O)N1 (stereo partly drawn) [Compound B227, (3S)-3-((4aS)-3-((8-(4-((1R,2S)-6-hydroxy-2-phenyl-1,2,3,4-tetrahydronaphthalen-1-yl)phenyl)-1-oxa-8-azaspiro[4.5]decan-3-yl)methyl)-8-oxo-1,2,3,4,4a,5,8,10-octahydro-9H-pyrazino[1′,2′: 4,5][1,4]oxazino[2,3-f]isoindol-9-yl)piperidine-2,6-dione]
DC50 (ER): < 10 nM | IC50 ([1]; T47D cell line): < 1 nM

O=C1CCC(N2Cc3cc4c(cc3C2=O)OC[C@@H]2CN(CC3COC5(C3)CN(c3ccc([C@@H]6c7ccc(O)cc7CC[C@@H]6c6ccccc6)cc3)C5)CCN42)C(=O)N1 (stereo partly drawn) [Compound B231, 3-((4aS)-3-((2-(4-((1R,2S)-6-hydroxy-2-phenyl-1,2,3,4-tetrahydronaphthalen-1-yl)phenyl)-5-oxa-2-azaspiro[3.4]octan-7-yl)methyl)-8-oxo-1,2,3,4,4a,5,8,10-octahydro-9H-pyrazino[1′,2′:4,5][1,4]oxazino[2,3-f]isoindol-9-yl)piperidine-2,6-dione]
DC50 (ER): 10 to 100 nM | IC50 ([1]; T47D cell line): < 1 nM

O=C1CCC(N2Cc3c(ccc4c3OCC43CCN(CC4CCC5(CCN(c6ccc([C@@H]7c8ccc(O)cc8CC[C@@H]7c7ccccc7)cc6)CC5)O4)CC3)C2=O)C(=O)N1 (stereo partly drawn) [Compound B178, 3-(1′-((8-(4-((1R,2S)-6-hydroxy-2-phenyl-1,2,3,4-tetrahydronaphthalen-1-yl)phenyl)-1-oxa-8-azaspiro[4.5]decan-2-yl)methyl)-6-oxo-6,8-dihydro-2H,7H-spiro[furo[2,3-e]isoindole-3,4′-piperidin]-7-yl)piperidine-2,6-dione]
DC50 (ER): > 100 nM | IC50 [1]: < 1 nM

O=C1CC[C@H](N2Cc3c(ccc4c3OCC43CCN(CC4CCC5(C4)CN(c4ccc([C@@H]6c7ccc(O)cc7CC[C@@H]6c6ccccc6)cc4)C5)CC3)C2=O)C(=O)N1 (stereo partly drawn) [Compound B359, 3-(1′-((2-(4-((1R,2S)-6-hydroxy-2-phenyl-1,2,3,4-tetrahydronaphthalen-1-yl)phenyl)-2-azaspiro[3.4]octan-6-yl)methyl)-6-oxo-6,8-dihydro-2H,7H-spiro[furo[2,3-e]isoindole-3,4′-piperidin]-7-yl)piperidine-2,6-dione]
DC50 (ER): 10 to 100 nM | IC50 [1]: 1 to 10 nM

O=C1CC[C@H](NC(=O)c2ccc3c(n2)OC[C@H]2CN(CC4CCN(c5ccc([C@@H]6c7ccc(O)cc7CC[C@@H]6c6ccccc6)cc5)CC4)CCN32)C(=O)N1 [Compound B224, (R)-N-((S)-2,6-dioxopiperidin-3-yl)-3-((1-(4-((1R,2S)-6-hydroxy-2-phenyl-1,2,3,4-tetrahydronaphthalen-1-yl)phenyl)piperidin-4-yl)methyl)-1,2,3,4,4a,5-hexahydropyrazino[1,2-d]pyrido[2,3-b][1,4]oxazine-8-carboxamide]
DC50 (ER): > 100 nM | IC50 ([1]; T47D cell line): 1 to 10 nM

O=C1CCC(N2Cc3cc4c(cc3C2=O)OC[C@@H]2CN(CC(=O)N3CC5(C3)CN(c3ccc([C@@H]6c7ccc(O)cc7CC[C@@H]6c6ccccc6)cc3)C5)CCN42)C(=O)N1 (stereo partly drawn) [Compound B208, 3-((S)-3-(2-(6-(4-((1R,2S)-6-hydroxy-2-phenyl-1,2,3,4-tetrahydronaphthalen-1-yl)phenyl)-2,6-diazaspiro[3.3]heptan-2-yl)-2-oxoethyl)-8-oxo-1,2,3,4,4a,5,8,10-octahydro-9H-pyrazino[1′,2′:4,5][1,4]oxazino[2,3-f]isoindol-9-yl)piperidine-2,6-dione]
DC50 (ER): < 10 nM | IC50 ([1]; T47D cell line): < 1 nM

O=C1CCC(Nc2ccc(C3CCN(CC4COC5(CCN(c6ccc([C@@H]7c8ccc(O)cc8CC[C@@H]7c7ccccc7)cc6)CC5)C4)CC3)cc2)C(=O)N1 (stereo partly drawn) [Compound B344, 3-((4-(1-((8-(4-((1R,2S)-6-hydroxy-2-phenyl-1,2,3,4-tetrahydronaphthalen-1-yl)phenyl)-1-oxa-8-azaspiro[4.5]decan-3-yl)methyl)piperidin-4-yl)phenyl)amino)piperidine-2,6-dione]
DC50 (ER): > 100 nM | IC50 ([1]; T47D cell line): 1 to 10 nM

O=C1CCC(N2Cc3c(ccc4c3OC[C@H]3CN(CC(=O)N5CC(Nc6ccc([C@@H]7c8ccc(O)cc8CC[C@@H]7c7ccccc7)cc6)C5)CCN43)C2=O)C(=O)N1 (stereo partly drawn) [Compound B220, 3-((R)-7-(2-(3-((4-((1R,2S)-6-hydroxy-2-phenyl-1,2,3,4-tetrahydronaphthalen-1-yl)phenyl)amino)azetidin-1-yl)-2-oxoethyl)-1-oxo-1,3,5,5a,6,7,8,9-octahydro-2H-pyrazino[1′,2′:4,5][1,4]oxazino[2,3-e]isoindol-2-yl)piperidine-2,6-dione]
DC50 (ER): > 100 nM | IC50 ([1]; T47D cell line): < 1 nM

O=C1CCC(N2Cc3cc4c(cc3C2=O)OC[C@@H]2CN(C(=O)CN3CCN(c5ccc([C@@H]6c7ccc(O)cc7CC[C@@H]6c6ccccc6)cc5)CC3)CCN42)C(=O)N1 (stereo partly drawn) [Compound B144, 3-((S)-3-(2-(4-(4-((1R,2S)-6-hydroxy-2-phenyl-1,2,3,4-tetrahydronaphthalen-1-yl)phenyl)piperazin-1-yl)acetyl)-8-oxo-1,2,3,4,4a,5,8,10-octahydro-9H-pyrazino[1′,2′:4,5][1,4]oxazino[2,3-f]isoindol-9-yl)piperidine-2,6-dione]
DC50 (ER): 10 to 100 nM | IC50 ([1]; T47D cell line): < 1 nM

O=C1CCC(N2Cc3c(ccc4c3OC[C@H]3CN(CC5COC6(CN(c7ccc([C@@H]8c9ccc(O)cc9CC[C@@H]8c8ccccc8)cc7)C6)OC5)CCN43)C2=O)C(=O)N1 (stereo partly drawn) [Compound B327, 3-((R)-7-((2-(4-((1R,2S)-6-hydroxy-2-phenyl-1,2,3,4-tetrahydronaphthalen-1-yl)phenyl)-5,9-dioxa-2-azaspiro[3.5]nonan-7-yl)methyl)-1-oxo-1,3,5,5a,6,7,8,9-octahydro-2H-pyrazino[1′,2′:4,5][1,4]oxazino[2,3-e]isoindol-2-yl)piperidine-2,6-dione]
DC50 (ER): 10 to 100 nM | IC50 ([1]; T47D cell line): < 1 nM

O=C1CCC(N2Cc3c(ccc4c3OCC43CCN(CC4CC5(CCN(c6ccc([C@@H]7c8ccc(O)cc8CC[C@@H]7c7ccccc7)cc6)CC5)CO4)CC3)C2=O)C(=O)N1 (stereo partly drawn) [Compound B175, 3-(1′-((8-(4-((1R,2S)-6-hydroxy-2-phenyl-1,2,3,4-tetrahydronaphthalen-1-yl)phenyl)-2-oxa-8-azaspiro[4.5]decan-3-yl)methyl)-6-oxo-6,8-dihydro-2H,7H-spiro[furo[2,3-e]isoindole-3,4′-piperidin]-7-yl)piperidine-2,6-dione]
DC50 (ER): 10 to 100 nM | IC50 [1]: < 1 nM

O=C1CCC(N2Cc3cc4c(cc3C2=O)OC[C@@H]2CN(CC3COC5(CCN(c6ccc([C@@H]7c8ccc(O)cc8CC[C@@H]7c7ccccc7)cc6)CC5)O3)CCN42)C(=O)N1 (stereo partly drawn) [Compound B239, 3-((4aS)-3-((8-(4-((1R,2S)-6-hydroxy-2-phenyl-1,2,3,4-tetrahydronaphthalen-1-yl)phenyl)-1,4-dioxa-8-azaspiro[4.5]decan-2-yl)methyl)-8-oxo-1,2,3,4,4a,5,8,10-octahydro-9H-pyrazino[1′,2′:4,5][1,4]oxazino[2,3-f]isoindol-9-yl)piperidine-2,6-dione]
DC50 (ER): 10 to 100 nM | IC50 ([1]; T47D cell line): 1 to 10 nM

O=C1CCC(N2Cc3cc4c(cc3C2=O)OC[C@@H]2CN(CC(=O)N3CC5(CC(Nc6ccc([C@@H]7c8ccc(O)cc8CC[C@@H]7c7ccccc7)cc6)C5)C3)CCN42)C(=O)N1 (stereo partly drawn) [Compound B153, 3-((S)-3-(2-(6-((4-((1R,2S)-6-hydroxy-2-phenyl-1,2,3,4-tetrahydronaphthalen-1-yl)phenyl)amino)-2-azaspiro[3.3]heptan-2-yl)-2-oxoethyl)-8-oxo-1,2,3,4,4a,5,8,10-octahydro-9H-pyrazino[1′,2′:4,5][1,4]oxazino[2,3-f]isoindol-9-yl)piperidine-2,6-dione]
DC50 (ER): < 10 nM | IC50 ([1]; T47D cell line): < 1 nM

O=C1CC[C@H](NC(=O)c2ccc3c(n2)OC[C@H]2CN(CC4CCC5(C4)CN(c4ccc([C@@H]6c7ccc(O)cc7CC[C@@H]6c6ccccc6)cc4)C5)CCN32)C(=O)N1 (stereo partly drawn) [Compound B360, (4aR)-N-((S)-2,6-dioxopiperidin-3-yl)-3-((2-(4-((1R,2S)-6-hydroxy-2-phenyl-1,2,3,4-tetrahydronaphthalen-1-yl)phenyl)-2-azaspiro[3.4]octan-6-yl)methyl)-1,2,3,4,4a,5-hexahydropyrazino[1,2-d]pyrido[2,3-b][1,4]oxazine-8-carboxamide]
DC50 (ER): > 100 nM | IC50 ([1]; T47D cell line): > 10 nM
